Source: patent publication EP0014295B1, “Benzodioxan derivatives, process for their preparation and their therapeutical applications” (Bouchara, Emile Dr., priority 1979, dated 1980)

Legend:
[1] = test system: pression artérielle de l'animal hypertendu non anesthésié; experiment: Effect on arterial pressure of the non-anaesthetised hypertensive animal, oral (rat); type: in vivo
From the text: (§1) b) Effet sur la pression artérielle de l'animal hypertendu non anesthésié.
(§2) L'étude a été conduite chez le rat et chez le chien. On a utilisé, d'une part, des animaux (rats) présentant une hypertension expérimentale induite par ligature de l'aorte abdominale entre les deux artères rénales et, d'autre part, des animaux (rats et chiens) porteurs d'hypertension spontanée.
(§3) Le composé de l'exemple 2 a été administré par voie orale soit en prise unique pour connaître la cinétique d'action du produit, soit en traitement prolongé.

[2] = test system: pression artérielle de l'animal hypertendu non anesthésié; experiment: Effect on arterial pressure of the non-anaesthetised hypertensive animal, oral (dog); type: in vivo, chien
From the text: as §1, §2, §3

[3] = test system: pression artérielle de l'animal normotendu anesthésié; experiment: Effect on arterial pressure of the anaesthetised normotensive animal, intravenous (rabbit); type: in vivo; conditions: lapin normotendu anesthésié, voie intraveineuse, dès la dose de 0,250 mg/kg; proportionnelle aux doses en intensité et en durée
From the text: (§4) a) Effet sur la pression artérielle de l'animal normotendu anesthésié.
(§5) L'étude a été conduite chez le rat, le lapin et le chien. Le composé de l'exemple 2 a été administré par voie intraveineuse. Les différents paramètres enregistrés ont été les pressions artérielles systoliques, diastoliques et moyennes, la fréquence cardiaque, la vitesse d'éjection systolique (dp/dt). La force de contraction cardiaque, les débits artériel et veineux ont été enregistrés chez le chien uniquement.

[4] = test system: pression artérielle de l'animal normotendu anesthésié; experiment: Effect on arterial pressure of the anaesthetised normotensive animal, intravenous (dog); type: in vivo; conditions: chien normotendu anesthésié, voie intraveineuse
From the text: as §4, §5

Acute toxicity, oral = conditions: mouse, in vivo, souris, per os, read-out: Dose léthale 50 approchée mg/kg per os
From the text: La toxicité a été déterminée chez la souris par voie orale. Les résultats sont donnés dans le tableau III.

système nerveux central = experiment: Effects on the central nervous system, oral; type: in vivo; conditions: souris, voie orale, doses provoquant une activité antihypertensive chez le rat
From the text: Ces effets centraux sont peut-être directement liés à l'action hypotensive

[5] = test system: pression artérielle de l'animal normotendu anesthésié; experiment: Effect on arterial pressure of the anaesthetised normotensive animal, intravenous (rat); type: in vivo; conditions: voie intraveineuse
From the text: as §4, §5

rats = experiment: Chronic toxicity, mixed with food for 45 days; type: in vivo; conditions: 75 mg/kg/jour, mélangé à la nourriture, 45 jours
From the text: Le composé de l'exemple 2, mélangé à la nourriture, a été administré 45 jours de suite à des rats.

[6] = dès la dose de 0,250 mg/kg, proportionnelle aux doses en intensité et en durée

O=C(c1ccc(F)cc1)C1CCN(CC2COc3ccccc3O2)CC1 (centres unmarked) [Exemple 2, Chlorhydratede la 1-[(2,3-dihydro-4H-1,4-benzodioxin)-2-ylméthyl]-4-(4-fluorobenzoyl) pipéridine]
Diminution de la pression artérielle en mm de mercure Chez le rat ([1]; 10 mg/kg P.O., 10mn): 39±11 mm de mercure | Diminution de la pression artérielle en mm de mercure Chez le rat ([1]; 10 mg/kg P.O., 30mn): 45±10 mm de mercure | Diminution de la pression artérielle en mm de mercure Chez le rat ([1]; 10 mg/kg P.O., 1h): 33±9 mm de mercure | Diminution de la pression artérielle en mm de mercure Chez le rat ([1]; 10 mg/kg P.O., 2h): 20±6 mm de mercure | Diminution de la pression artérielle en mm de mercure Chez le rat ([1]; 10 mg/kg P.O., 6h): 6±3 mm de mercure | Diminution de la pression artérielle en mm de mercure Chez le rat ([1]; 20 mg/kg P.O., 10mn): 66±8 mm de mercure | Diminution de la pression artérielle en mm de mercure Chez le rat ([1]; 20 mg/kg P.O., 30mn): 63±6 mm de mercure | Diminution de la pression artérielle en mm de mercure Chez le rat ([1]; 20 mg/kg P.O., 1h): 49±7 mm de mercure | Diminution de la pression artérielle en mm de mercure Chez le rat ([1]; 20 mg/kg P.O., 2h): 37±7 mm de mercure | Diminution de la pression artérielle en mm de mercure Chez le rat ([1]; 20 mg/kg P.O., 6h): 29±6 mm de mercure | Diminution de la pression artérielle en mm de mercure Chez le rat ([1]; 20 mg/kg P.O., 12h): 17±7 mm de mercure | Diminution de la pression artérielle en mm de mercure Chez le rat ([1]; 20 mg/kg P.O., 18h): 8±4 mm de mercure | Diminution de la pression artérielle en mm de mercure Chez le rat ([1]; 20 mg/kg P.O., 24h): 3±3 mm de mercure | Diminution de la pression artérielle en mm de mercure Chez le rat ([1]; 50 mg/kg P.O., 10mn): 68±6 mm de mercure | Diminution de la pression artérielle en mm de mercure Chez le rat ([1]; 50 mg/kg P.O., 30mn): 68±5 mm de mercure | Diminution de la pression artérielle en mm de mercure Chez le rat ([1]; 50 mg/kg P.O., 1h): 52±6 mm de mercure | Diminution de la pression artérielle en mm de mercure Chez le rat ([1]; 50 mg/kg P.O., 2h): 38±7 mm de mercure | Diminution de la pression artérielle en mm de mercure Chez le rat ([1]; 50 mg/kg P.O., 6h): 32±8 mm de mercure | Diminution de la pression artérielle en mm de mercure Chez le rat ([1]; 50 mg/kg P.O., 12h): 16±7 mm de mercure | Diminution de la pression artérielle en mm de mercure Chez le rat ([1]; 50 mg/kg P.O., 18h): 8±5 mm de mercure | Diminution de la pression artérielle en mm de mercure Chez le rat ([1]; 50 mg/kg P.O., 24h): 5±5 mm de mercure | action antihypertensive ([1]; rat hypertendu, voie orale, prise unique ou traitement prolongé, augmentant avec les doses jusqu'à un plafond): action antihypertensive nette, prolongée | Diminution de la pression artérielle en mm de mercure Chez le chien ([2]; 10 mg/kg P.O., 20mn): 10±4 mm de mercure | Diminution de la pression artérielle en mm de mercure Chez le chien ([2]; 10 mg/kg P.O., 40mn): 10±4 mm de mercure | Diminution de la pression artérielle en mm de mercure Chez le chien ([2]; 10 mg/kg P.O., 1h): 18±3 mm de mercure | Diminution de la pression artérielle en mm de mercure Chez le chien ([2]; 10 mg/kg P.O., 2h): 11±1 mm de mercure | Diminution de la pression artérielle en mm de mercure Chez le chien ([2]; 10 mg/kg P.O., 5h): 4±3 mm de mercure | Diminution de la pression artérielle en mm de mercure Chez le chien ([2]; 10 mg/kg P.O., 7h): 1±2 mm de mercure | Diminution de la pression artérielle en mm de mercure Chez le chien ([2]; 10 mg/kg P.O., 24h): 0±1 mm de mercure | Diminution de la pression artérielle en mm de mercure Chez le chien ([2]; 20 mg/kg P.O., 20mn): 12±4 mm de mercure | Diminution de la pression artérielle en mm de mercure Chez le chien ([2]; 20 mg/kg P.O., 40mn): 26±3 mm de mercure | Diminution de la pression artérielle en mm de mercure Chez le chien ([2]; 20 mg/kg P.O., 1h): 38±2 mm de mercure | Diminution de la pression artérielle en mm de mercure Chez le chien ([2]; 20 mg/kg P.O., 2h): 37±3 mm de mercure | Diminution de la pression artérielle en mm de mercure Chez le chien ([2]; 20 mg/kg P.O., 5h): 18±7 mm de mercure | Diminution de la pression artérielle en mm de mercure Chez le chien ([2]; 20 mg/kg P.O., 7h): 8±1 mm de mercure | Diminution de la pression artérielle en mm de mercure Chez le chien ([2]; 20 mg/kg P.O., 24h): 2±3 mm de mercure | Diminution de la pression artérielle en mm de mercure Chez le chien ([2]; 50 mg/kg P.O., 20mn): 21±9 mm de mercure | Diminution de la pression artérielle en mm de mercure Chez le chien ([2]; 50 mg/kg P.O., 40mn): 31±6 mm de mercure | Diminution de la pression artérielle en mm de mercure Chez le chien ([2]; 50 mg/kg P.O., 1h): 40±8 mm de mercure | Diminution de la pression artérielle en mm de mercure Chez le chien ([2]; 50 mg/kg P.O., 2h): 46±3 mm de mercure | Diminution de la pression artérielle en mm de mercure Chez le chien ([2]; 50 mg/kg P.O., 5h): 28±8 mm de mercure | Diminution de la pression artérielle en mm de mercure Chez le chien ([2]; 50 mg/kg P.O., 7h): 22±6 mm de mercure | Diminution de la pression artérielle en mm de mercure Chez le chien ([2]; 50 mg/kg P.O., 24h): 1±2 mm de mercure | action antihypertensive ([2]; chien hypertendu, voie orale, prise unique ou traitement prolongé, augmentant avec les doses jusqu'à un plafond): action antihypertensive nette, prolongée | effet antihypertenseur après arrêt du traitement ([2]; chien, après arrêt du traitement, retour progressif à la normale): persistance de l'effat antihypertenseur | pression artérielle [3]: chute tensionnelle systo- diastolique très rapide | pression artérielle [4, 6]: chute tensionnelle systo- diastolique très rapide | dp/dt (vitesse d'éjection systolique) ([4]; parallèlement à l'hypotension): augmentation | débits artériel et veineux ([4]; parallèlement à l'hypotension): augmentation | force de contraction cardiaque ([4]; parallèlement à l'hypotension): augmentation | LD50 (Acute toxicity, oral): 880 mg/kg | agressivité (système nerveux central): diminution | sommeil expérimental (système nerveux central): potentialisation | sédation (système nerveux central): sédation générale | fréquence cardiaque [5]: bradycardie | pression artérielle [5, 6]: chute tensionnelle systo- diastolique très rapide | anomalie clinique, hématologique, anatomique (rats): aucune anomalie ni clinique, ni hématologique, ni anatomique | taux des triglycérides (rats): chute nette et isolée

COc1ccc(C(=O)C2CCN(CC3COc4ccccc4O3)CC2)cc1 (centres unmarked) [Exemple 4, Fumaratede la 1-[(2,3-dihydro-4H-1,4-benzodioxin)-2-ylméthyl]-4-(4-méthoxybenzoyl) pipéridine]
LD50 (Acute toxicity, oral): 364 mg/kg

O=C(c1ccc(Cl)cc1)C1CCN(CC2COc3ccccc3O2)CC1 (centres unmarked) [Exemple 6, Chlorhydratede la 1-[(2,3-dihydro-4H-1 ,4-benzodioxine)-2-ylméthyl]-4-(4-chlorobenzoyl) pipéridine]
LD50 (Acute toxicity, oral): 880 mg/kg

O=C(c1ccc(O)cc1)C1CCN(CC2COc3ccccc3O2)CC1 (centres unmarked) [Exemple 7, 1-[(2,3-Dihydro-4H-1,4-benzodioxin)-2-ylméthyl]-4-(4-hydroxy-benzoyl) pipéridine]
LD50 (Acute toxicity, oral): 440 mg/kg

O=C(Oc1ccc(C(=O)C2CCN(CC3COc4ccccc4O3)CC2)cc1)c1cccnc1 (centres unmarked) [Exemple 8, Nicotinatede la 1-[(2,3-dihydro-4H-1,4-benzodioxin)-2-ylméthyl]-4-(4-hydroxybenzoyl) pipéridine]
LD50 (Acute toxicity, oral): > 3200 mg/kg

O=C(c1ccccc1)C1CCN(CC2COc3ccccc3O2)CC1 (centres unmarked) [Exemple 9, Ghlorhydratede la 1-[(2,3-dihydro-4H-1,4-benzodioxin)-2-ylméthyl]-4-benzoyl pipéridine]
LD50 (Acute toxicity, oral): 2400 mg/kg

Cc1ccc(C(=O)C2CCN(CC3COc4ccccc4O3)CC2)cc1 (centres unmarked) [Exemple 10]
LD50 (Acute toxicity, oral): 1460 mg/kg

CCc1ccc(C(=O)C2CCN(CC3COc4ccccc4O3)CC2)cc1 (centres unmarked) [Exemple 11, Chlorhydratede la 1-[(2,3-dihydro-4H-1,4-benzodioxin)-2-ylméthyl]-4-(4-éthylbenzoyl) pipéridine]
LD50 (Acute toxicity, oral): 1200 mg/kg
